Results on six cell lines are retold here after the supplement of paper PMC10307832.

What all share (assay): relative viability (nuclei count vs DMSO), 5 days (fraction); higher = more cells survive
Compound in the experiment “Veliparib + Luminespib”: C[C@]1(c2nc3c(C(N)=O)cccc3[nH]2)CCCN1 [Veliparib] + CCNC(=O)c1noc(-c2cc(C(C)C)c(O)cc2O)c1-c1ccc(CN2CCOCC2)cc1 [Luminespib] (partner 0.01 µM)
The procedure, abridged:
(§1)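 Five library-drug doses in √10 steps were combined with a fixed anchor-drug dose, or a single drug was given alone, by pin tool to lung cancer cell lines in 1536-well plates the day after seeding. Nuclei were stained and counted after 5 days. Relative viability is the nuclei count in treated wells over that in vehicle wells, taken as the median of duplicate plates.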

Compound in experiment [1]: COC1=CC=C(C=C1)CN2C=CC3=C2C=C(C=C3)C(=O)NO + C[C@@H](Oc1cc(-c2cnn(C3CCNCC3)c2)cnc1N)c1c(Cl)ccc(F)c1Cl [Crizotinib] (partner 1 µM)
The procedure, abridged:
as §1

Compound in the experiment “Veliparib + Dasatinib”: C[C@]1(c2nc3c(C(N)=O)cccc3[nH]2)CCCN1 [Veliparib] + Cc1nc(Nc2ncc(C(=O)Nc3c(C)cccc3Cl)s2)cc(N2CCN(CCO)CC2)n1 [Dasatinib] (partner 0.075 µM)
The method, boiled down:
as §1

Compound in the experiment “Veliparib + Navitoclax”: C[C@]1(c2nc3c(C(N)=O)cccc3[nH]2)CCCN1 [Veliparib] + CC1(C)CCC(c2ccc(Cl)cc2)=C(CN2CCN(c3ccc(C(=O)NS(=O)(=O)c4ccc(N[C@H](CCN5CCOCC5)CSc5ccccc5)c(S(=O)(=O)C(F)(F)F)c4)cc3)CC2)C1 [Navitoclax] (partner 0.5 µM)
The procedure, abridged:
as §1

Regarding PC-3 [JPC-3], the relative viability with Veliparib + Luminespib (first compound 0.02 µM) was determined as 0.65; with Veliparib + Luminespib (first compound 0.06325 µM) it was 0.711; in the experiment with Veliparib + Luminespib (first compound 0.2 µM) it was 0.753; with Veliparib + Luminespib (first compound 0.6325 µM), 0.662; with Veliparib + Luminespib (first compound 2 µM), 0.66; in experiment [1] (first compound 0.08 µM), 0.969. In addition, the relative viability in experiment [1] (first compound 0.253 µM) amounted to 1.02; in experiment [1] (first compound 0.8 µM), 1.02; in experiment [1] (first compound 2.53 µM) it was 1.05; in experiment [1] (first compound 8 µM), 0.965; in the experiment with Veliparib + Dasatinib (first compound 0.02 µM), 1.04; with Veliparib + Dasatinib (first compound 0.06325 µM) it was 0.93. For the same cell line, the relative viability came to 0.967 with Veliparib + Dasatinib (first compound 0.2 µM); 0.985 in the experiment with Veliparib + Dasatinib (first compound 0.6325 µM); 0.975 with Veliparib + Dasatinib (first compound 2 µM); 0.742 in the experiment with Veliparib + Navitoclax (first compound 0.02 µM); 0.77 with Veliparib + Navitoclax (first compound 0.06325 µM); 0.801 with Veliparib + Navitoclax (first compound 0.2 µM). The relative viability with Veliparib + Navitoclax (first compound 0.6325 µM) came to 0.749; in the experiment with Veliparib + Navitoclax (first compound 2 µM) it was 0.734.

As for PC-14, the relative viability is 0.147 with Veliparib + Luminespib (first compound 0.06325 µM); 0.198 with Veliparib + Luminespib (first compound 0.2 µM); 0.151 with Veliparib + Luminespib (first compound 0.6325 µM); 0.145 with Veliparib + Luminespib (first compound 2 µM); 0.675 in experiment [1] (first compound 0.08 µM); 0.898 in experiment [1] (first compound 0.253 µM). For the same cell line, the relative viability in experiment [1] (first compound 0.8 µM) came to 0.908; in experiment [1] (first compound 2.53 µM), 0.924; in experiment [1] (first compound 8 µM) it was 0.809; in the experiment with Veliparib + Dasatinib (first compound 0.02 µM) it was 0.214; with Veliparib + Dasatinib (first compound 0.06325 µM), 0.26; with Veliparib + Dasatinib (first compound 0.2 µM), 0.319. The relative viability in the experiment with Veliparib + Dasatinib (first compound 0.6325 µM) is 0.281; with Veliparib + Dasatinib (first compound 2 µM) it was 0.317; with Veliparib + Navitoclax (first compound 0.02 µM), 0.991; in the experiment with Veliparib + Navitoclax (first compound 0.06325 µM), 1.05; with Veliparib + Navitoclax (first compound 0.2 µM), 0.937; in the experiment with Veliparib + Navitoclax (first compound 0.6325 µM), 0.895. Further, in the experiment with Veliparib + Navitoclax (first compound 2 µM), the relative viability was 0.898.

In the case of RERF-LC-KJ, the relative viability with Veliparib + Luminespib (first compound 0.02 µM) is 1.26; in the experiment with Veliparib + Luminespib (first compound 0.06325 µM) it was 1.25; with Veliparib + Luminespib (first compound 0.2 µM), 1.2; with Veliparib + Luminespib (first compound 0.6325 µM), 1.21; with Veliparib + Luminespib (first compound 2 µM) it was 1.29; in experiment [1] (first compound 0.08 µM), 0.618. The relative viability in experiment [1] (first compound 0.253 µM) came out at 0.756; in experiment [1] (first compound 0.8 µM), 0.864; in experiment [1] (first compound 2.53 µM), 0.816; in experiment [1] (first compound 8 µM), 0.814; with Veliparib + Dasatinib (first compound 0.02 µM), 0.574; with Veliparib + Dasatinib (first compound 0.06325 µM), 0.865. Further, the relative viability with Veliparib + Dasatinib (first compound 0.2 µM) stood at 0.845; with Veliparib + Dasatinib (first compound 0.6325 µM), 0.767; with Veliparib + Dasatinib (first compound 2 µM) it was 0.755; with Veliparib + Navitoclax (first compound 0.02 µM), 1.05; in the experiment with Veliparib + Navitoclax (first compound 0.2 µM) it was 1; with Veliparib + Navitoclax (first compound 0.6325 µM), 0.852. In the experiment with Veliparib + Navitoclax (first compound 2 µM), the relative viability is 0.754.

Regarding SK-LU-1, the relative viability came out at 0.227 with Veliparib + Luminespib (first compound 0.02 µM); 0.195 in the experiment with Veliparib + Luminespib (first compound 0.06325 µM); 0.232 with Veliparib + Luminespib (first compound 0.2 µM); 0.199 with Veliparib + Luminespib (first compound 0.6325 µM); 0.22 with Veliparib + Luminespib (first compound 2 µM); 0.929 in experiment [1] (first compound 0.08 µM). The relative viability in experiment [1] (first compound 0.253 µM) amounted to 1.17; in experiment [1] (first compound 0.8 µM), 0.992; in experiment [1] (first compound 2.53 µM), 1.01; in experiment [1] (first compound 8 µM), 0.749; with Veliparib + Dasatinib (first compound 0.02 µM), 0.185; with Veliparib + Dasatinib (first compound 0.06325 µM) it was 0.173. For the same cell line, the relative viability with Veliparib + Dasatinib (first compound 0.2 µM) was found to be 0.175; with Veliparib + Dasatinib (first compound 0.6325 µM) it was 0.17; with Veliparib + Dasatinib (first compound 2 µM), 0.187; with Veliparib + Navitoclax (first compound 0.02 µM), 0.985; with Veliparib + Navitoclax (first compound 0.06325 µM) it was 1.05; with Veliparib + Navitoclax (first compound 0.2 µM), 0.959. The relative viability with Veliparib + Navitoclax (first compound 0.6325 µM) amounted to 0.804; in the experiment with Veliparib + Navitoclax (first compound 2 µM), 0.793.

For SK-MES-1, the relative viability with Veliparib + Luminespib (first compound 0.02 µM) turned out to be 0.827; in the experiment with Veliparib + Luminespib (first compound 0.06325 µM), 0.467; with Veliparib + Luminespib (first compound 0.2 µM), 0.897; in the experiment with Veliparib + Luminespib (first compound 0.6325 µM), 0.735; in the experiment with Veliparib + Luminespib (first compound 2 µM) it was 0.898; in experiment [1] (first compound 0.08 µM), 1. Besides, the relative viability in experiment [1] (first compound 0.253 µM) was 0.983; in experiment [1] (first compound 0.8 µM) it was 0.984; in experiment [1] (first compound 2.53 µM), 1; in experiment [1] (first compound 8 µM), 0.885; in the experiment with Veliparib + Dasatinib (first compound 0.02 µM), 0.39; in the experiment with Veliparib + Dasatinib (first compound 0.06325 µM), 0.34. Moreover, the relative viability amounted to 0.432 with Veliparib + Dasatinib (first compound 0.2 µM); 0.397 in the experiment with Veliparib + Dasatinib (first compound 0.6325 µM); 0.484 in the experiment with Veliparib + Dasatinib (first compound 2 µM); 1.27 in the experiment with Veliparib + Navitoclax (first compound 0.02 µM); 1.16 with Veliparib + Navitoclax (first compound 0.06325 µM); 1.3 with Veliparib + Navitoclax (first compound 0.2 µM). Moreover, the relative viability came to 1.06 with Veliparib + Navitoclax (first compound 0.6325 µM) and 1.26 with Veliparib + Navitoclax (first compound 2 µM).

As to UMC-11, the relative viability was 1.11 in the experiment with Veliparib + Luminespib (first compound 0.02 µM); 0.994 in the experiment with Veliparib + Luminespib (first compound 0.06325 µM); 1.02 with Veliparib + Luminespib (first compound 0.2 µM); 0.958 with Veliparib + Luminespib (first compound 0.6325 µM); 0.975 with Veliparib + Luminespib (first compound 2 µM); 0.269 in experiment [1] (first compound 0.08 µM). Further, the relative viability in experiment [1] (first compound 0.253 µM) was found to be 0.704; in experiment [1] (first compound 0.8 µM), 0.564; in experiment [1] (first compound 2.53 µM) it was 0.554; in experiment [1] (first compound 8 µM) it was 0.56; in the experiment with Veliparib + Dasatinib (first compound 0.02 µM) it was 0.505; with Veliparib + Dasatinib (first compound 0.06325 µM), 0.451. In addition, the relative viability in the experiment with Veliparib + Dasatinib (first compound 0.2 µM) was 0.483; with Veliparib + Dasatinib (first compound 0.6325 µM) it was 0.452; in the experiment with Veliparib + Dasatinib (first compound 2 µM), 0.542; with Veliparib + Navitoclax (first compound 0.02 µM), 0.345; with Veliparib + Navitoclax (first compound 0.06325 µM) it was 0.312; in the experiment with Veliparib + Navitoclax (first compound 0.2 µM) it was 0.369. For the same cell line, the relative viability with Veliparib + Navitoclax (first compound 0.6325 µM) turned out to be 0.324; with Veliparib + Navitoclax (first compound 2 µM), 0.331.
